One series concerns neural stem cell (NSC). Conditions: cited from earlier work.
The subject of series [1] is neural progenitor cells (NPC). The settings on record: cited from earlier work; for influence on the proliferation of NPCs: treatment of NPCs with leukotriene.
For another series, the system named is young rats. The settings on record: intraperitoneal, combination treatment with rofecoxib; cited from earlier work.
Series [2] is described as follows: Body weight on day 1 and day 42 of treatment. It is filed as in vivo, rat. The settings on record: young and old rats, 10 mg kg^-1 p.o. daily. As to the method:
For the analysis of cell survival and cell differentiation, all rats received intraperitoneal injections of BrdU (Sigma, Germany) at 50 mg kg^−1 of body weight dissolved in 0.9% saline solution on day 12, 13, 14 and 15.
GPR17 is highly expressed in food-intake-regulating Agrp Neurons, and intraventricular infusion of GPR17 agonists elevates food intake (Ren, 2012, Cell, 8; 149(6):1314-26). […] Therefore, each rat was weighed at the beginning of the experiment (day 1) and directly before the perfusion (day 42).

Series [3] concerns Alzheimer's disease patients. Conditions: cited from earlier work.
Series [4] concerns CysLT1R-mediated amyloid-beta generation. Conditions: cited from earlier work.

Where two headings read alike, the source gives them in different places.

For `CC(C)(O)c1ccccc1CC[C@@H](SCC1(CC(=O)O)CC1)c1cccc(/C=C/c2ccc3ccc(Cl)cc3n2)c1` [Montelukast, montelukast], in the series with neural stem cell (NSC) (15 μM), the NSC proliferation result is “significantly increase”. Moreover, the “proliferative potential of the NSCs” value with neural stem cell (NSC) (30 μM) and in the series with neural stem cell (NSC) (100 μM) was “significantly reduced” each time. Also, the NPC proliferation rate entry in series [1] (1 μM) and in series [1] (30 μM) was “did not alter” throughout. In addition, the NPC proliferation entry in series [1] (10 μM) was “increased proliferation”; in series [1] (15 μM) it was “increased proliferation”; in series [1] (50 μM) it was “significant reduction”; in series [1] (100 μM), “significant reduction”. The “effect against kainic acid-induced cognitive dysfunction in combination with rofecoxib” value in the series with young rats was “potentiates the protective effect of rofecoxib”. The “body weight vs vehicle treated counterparts” value is “did not differ” in series [2] and “remained stable” in series [2] (listed as montelukast).

For the molecule `CCCCC/C=C\C\C=C/C=C/C=C/[C@@H](SC[C@H](NC(=O)CC[C@H](N)C(=O)O)C(=O)NCC(=O)O)[C@@H](O)CCCC(=O)O` [Leukotriene C4], in series [1], the “influence on the proliferation of NPCs” value was “no influence”.

With `COc1ccc2c(c1)c(CC(=O)O)c(C)n2C(=O)c1ccc(Cl)cc1` [indomethacin], the mental functions entry in series [3] was “stabilize mental functions”.

On to pranlukast, for which the “leukotriene D4-induced increase in amyloid-beta generation” value in series [4] (3 month old mice, injected bilaterally 2.5 mm below the dura) is on record as “inhibited”. Moreover, in series [4] (mice, sub-dura injection), the “learning impairment and memory loss caused by leukotriene D4 treatment” value is “improves”.

As for `CCCCC/C=C\C\C=C/C=C/C=C/[C@@H](SC[C@H](N)C(=O)NCC(=O)O)[C@@H](O)CCCC(=O)O` [Leukotriene D4], the “influence on the proliferation of NPCs” value in series [1] is listed as “no influence”. In series [4] (3 month old mice), the effect on cognition entry is “induce cognitive impairment”.

These data come from US20150322049A1, “LEUKOTRIENE PATHWAY ANTAGONISTS FOR THE TREATMENT OF DEMENTIA, COGNITIVE DEFICITS IN PARKINSON'S DISEASE AND/OR LEARNING AND MEMORY DEFICIENCIES IN PARKINSON'S DISEASE” (priority 2012, published 2015).
